Reference: publication PMC8526204, “Effects of Sinapic Acid Combined with Cisplatin on the Apoptosis and Autophagy of the Hepatoma Cells HepG2 and SMMC-7721” (Evidence-based Complementary and Alternative Medicine : eCAM, 2021)
Structures can show the parent of a compound that is named as a salt. Where two headings read alike, the source gives them in different places. Values belong to the compound of their own block, whether it stands above or below them. Peptide text beside a SMILES is read from it. * marks the point of attachment. Cbz = O=C(OCc1ccccc1)*; CH2F = FC*

Assays:
HepG2 cells [1] = test: Cell cycle analysis by flow cytometry (PI), HepG2; type: cell-based, human; conditions: 72 h, control 12.79 ± 0.89%
Description: The HepG2 and SMMC-7721 cells were seeded in a 6-well plate (5 × 10^5 cells/well). The cells were photographed using the inverted microscope (Eclipse Ti-S, Nikon Co., Ltd., Japan) to observe the morphological changes. The cells were collected, treated with 70% precooled ethanol (1 mL) in an ice bath, blew and mixed well, and then, fixed overnight at 4°C. The cells were stained with 25 µL PI staining solution and 10 µL RNase staining solution, according to the manufacturer's protocol, and the cell cycle was analyzed by flow cytometry (Attune NxT, Thermo Fisher Scientific Inc., USA).

[2] = MTT cell viability assay, HepG2; type: cell-based, human; conditions: human, HepG2 cells
Description: (§1) The cells HepG2, SMMC-7721, and HL-7702 were seeded in 96-well plates containing 6,000 cells per well, supplemented with various concentrations of Sa (0–2,000 μM) and DDP (5 μM). After the cells were incubated at 37°C for 24, 48, and 72 h, they were cultured with 20 µL MTT (5 mg/mL) for 4 h. The formazan crystals were dissolved by adding 150 µL of dimethyl sulfoxide, followed by recording the absorbance at 490 nm using a microplate reader (Varioskan LUX, Thermo Fisher Scientific Inc., USA) and calculating the percentage of cell viability.

HepG2 cells [3] = test: MTT cell viability assay, HepG2; type: cell-based, human; conditions: for IC50: Homo sapiens, HepG2, Sa treatment, MTT
Description: as §1

SMMC-7721 cells [4] = test: Western blot of apoptosis- and autophagy-related proteins, SMMC-7721; type: cell-based, human
Description: (§2) The HepG2 and SMMC-7721 cells treated with Sa/DDP were collected and using radioimmunoprecipitation assay buffer to lyse the cells at 4°C for 30 min to extract the total protein. The protein concentration of the samples was measured using the BCA protein assay kit, after centrifugation at 12,000 g at 4°C for 5 min, and denatured by boiling at 100°C. An equal amount of protein (30 μg) was resolved using the sodium dodecyl sulfate-polyacrylamide gel (10–12%) electrophoresis for 1.5 h. The proteins were then transferred onto a membrane of nitrocellulose and blocked using 5% skimmed milk for 2 h at 20°C, followed by rinsing thrice using PBS containing 0.1% Tween 20 (PBS-T), for 5 min each. Furthermore, the […] were incubated in diluted anti-Bax, Bcl-2 PARP, c-PARP, a-caspase-3, caspase-3, p62, Beclin-1, Atg5, LC3I/II, and β-actin according to 1 : 1,000, incubated overnight at 4°C, and subsequently washed repeatedly the next day. The membranes were incubated with a secondary antibody (1 : 3000) for 1 h at ambient temperature and washed repeatedly. After washing the membrane, it was developed by the FluorChem M image acquisition system (Protein Simple Inc., USA). The quantification was performed (where appropriate) using the ImageJ software (Rawak Software Inc., Stuttgart, Germany).

HepG2 cells [5] = test: Western blot of apoptosis- and autophagy-related proteins, HepG2; type: cell-based, human
Description: as §2

HepG2 cells [6] = test: Colony formation assay, HepG2; type: cell-based, human; conditions: HepG2, Sa 600 μM, 72 h then 10 d
Description: (§3) The HepG2 and SMMC-7721 cells were seeded in a 12-well plate (200–300 cells/well). […] Then, the recovery medium was added to the complete medium (1 mL) and cultured for 10 d. Subsequently, these cells were fixed in 4% paraformaldehyde solution (1 mL) at 37°C for 2 h, stained with 0.5% crystal violet staining solution (0.5 mL) for 15 min, and photographed, and the numbers of colonies formed were tabulated. The findings were expressed as a percentage of the number of colonies in each experimental group (assuming that the control group was 100%). The ImageJ software (Rawak Software Inc., Stuttgart, Germany) was used for analyzing the data.

SMMC-7721 cells [7] = test: Annexin V-FITC/PI apoptosis assay, SMMC-7721; type: cell-based, human; conditions: SMMC-7721, Sa 600 μM, 72 h; control 3.67 ± 0.34%
Description: (§4) The HepG2 and SMMC-7721 cells were seeded into a 6-well plate (1 × 10^5 cell/well), and after 72 h, the cells in each group were treated with trypsin and collected. The cells were rinsed twice in PBS, and a concentration of 5 × 10^5 cells/mL was treated with a binding buffer. According to the manufacturer's protocol, the cells were stained with 5 µL PI staining solution and 10 µL Annexin V-FITC staining solution with incubation for 30 min in the dark.

HepG2 cells [8] = test: Annexin V-FITC/PI apoptosis assay, HepG2; type: cell-based, human; conditions: HepG2, Sa 600 μM, 72 h; control 13.06 ± 1.04%
Description: as §4

HL-7702 cells = test: MTT cell viability assay, normal liver HL-7702; type: cell-based, human; conditions: for IC50: Homo sapiens, L02, HL-7702, Sa treatment, MTT
Description: as §1, with “After” for “The cells HepG2, SMMC-7721, and HL-7702 were seeded in 96-well plates containing 6,000 cells per well, supplemented with various concentrations of Sa (0–2,000 μM) and DDP (5 μM). After”

HepG2 cells [9] = test: Transwell migration assay, HepG2; type: cell-based, human; conditions: HepG2, Sa 600 μM, 24 h
Description: (§5) The lower section contained 700 μL of DMEM (including 10% FBS) along with the drug to be loaded. Briefly, 3 × 10^4 cells were added to the upper chamber while the lower chamber was filled with 10% FBS after incubating the cells for 24 h. The cells were cultured at 37°C for 24 h, fixed with a 4% paraformaldehyde solution, and stained with 0.5 mL of crystal violet. Subsequently, the cells in the upper chambers were removed by gently dabbing them with cotton swabs. These cells were photographed, and the invaded cells were observed using an inverted microscope (DM4 B, Leica Inc., Germany). Finally, the stained cells were counted in five randomly chosen fields under the microscope for further analysis.

SMMC-7721 cells [10] = test: Colony formation assay, SMMC-7721; type: cell-based, human; conditions: SMMC-7721, Sa 600 μM, 72 h then 10 d
Description: as §3

SMMC-7721 cells [11] = test: Transwell migration assay, SMMC-7721; type: cell-based, human; conditions: SMMC-7721, Sa 600 μM, 24 h
Description: as §5

SMMC-7721 cells [12] = test: MTT cell viability assay, SMMC-7721; type: cell-based; conditions: Homo sapiens, SMMC-7721, Sa treatment
Description: as §1, with “After” for “The cells HepG2, SMMC-7721, and HL-7702 were seeded in 96-well plates containing 6,000 cells per well, supplemented with various concentrations of Sa (0–2,000 μM) and DDP (5 μM). After”

[13] = HepG2, HCQ 40 μM pretreatment 1 h then Sa 600 µM/DDP 5 µM 72 h
[14] = SMMC-7721, Sa 600 μM, 72 h, vs control
[15] = HepG2, Sa 600 μM, 72 h, vs control
[16] = HepG2, Sa 600 μM, 72 h, western blot
[17] = HepG2, Z-VAD-FMK 20 µM pretreatment 1 h then Sa 600 µM/DDP 5 µM 72 h

Structure (SMILES): N.N.[Cl][Pt][Cl] [DDP, Cisplatin]
- percentage of cells in the G2/M phase (HepG2 cells [1]; HepG2, DDP 5 μM): 15.40 ± 1.23%

Structure (SMILES): CCN(CCO)CCCC(C)Nc1ccnc2cc(Cl)ccc12 (stereo not shown) [HCQ, Hydroxychloroquine sulfate, reference compound]
- viability at 1 h, 40 μM ([2]; HepG2, HCQ 40 μM pretreatment 1 h, no Sa/DDP, untreated 100.00 ± 19.04%): 98.3 ± 18.7%
- reduction of cell viability compared to Sa/DDP (HepG2 cells [3]; [13]): 19.07 ± 4.70%
- a-caspase-3 protein expression increase compared to Sa/DDP treatment (SMMC-7721 cells [4]; SMMC-7721, HCQ 40 µM pretreatment 1 h then Sa 600 µM/DDP 5 µM 72 h): 0.73 times
- a-caspase-3 protein expression increase compared to Sa/DDP treatment (HepG2 cells [5]; [13]): 0.34 times

- IC50 (HepG2 cells [3]; 24 h, read-out: IC50 24 h): 1800 µM
- IC50 (HepG2 cells [3]; 48 h, read-out: IC50 48 h): 1380 µM
- IC50 (HepG2 cells [3]; 72 h, read-out: IC50 72 h): 794 µM
- IC50 (SMMC-7721 cells [12]; 24 h, read-out: IC50 24 h): 2580 µM
- IC50 (SMMC-7721 cells [12]; 48 h, read-out: IC50 48 h): 1620 µM
- IC50 (SMMC-7721 cells [12]; 72 h, read-out: IC50 72 h): 1350 µM
Structure (SMILES): COc1cc(/C=C/C(=O)O)cc(OC)c1O [Sa, Sinapic acid]
- proliferation activity (colony formation, control = 100%) (HepG2 cells [6]): 71.46 ± 2.23%
- apoptosis rate (SMMC-7721 cells [7]): 10.74 ± 0.75%
- viability at 72 h, 600 µM ([2]; HepG2, Sa 600 µM, 72 h): 71.3 ± 4.08%
- apoptosis rate (HepG2 cells [8]): 36.00 ± 2.52%
- percentage of cells in the G2/M phase (HepG2 cells [1]; HepG2, Sa 600 μM): 22.60 ± 2.26%
- inhibitory effect on normal liver cells (HL-7702 cells; HL-7702, MTT): not pronounced
- IC50 (HL-7702 cells; 24 h, read-out: IC50 24 h): 5060 µM
- IC50 (HL-7702 cells; 48 h, read-out: IC50 48 h): 4430 µM
- IC50 (HL-7702 cells; 72 h, read-out: IC50 72 h): 4020 µM
- decrease of the migration rate (HepG2 cells [9]): 41.52 ± 8.80%
- proliferation activity (colony formation, control = 100%) (SMMC-7721 cells [10]): 72.90 ± 1.29%
- Atg5 expression increase (SMMC-7721 cells [4]; [14]): 4.7 times
- Beclin-1 expression increase (SMMC-7721 cells [4]; [14]): 2.5 times
- p62 expression decrease (SMMC-7721 cells [4]; [14]): 1.7 times
- decrease of the migration rate (SMMC-7721 cells [11]): 49.80 ± 5.78%
- Atg5 protein expression increase (HepG2 cells [5]; [15]): 2.9 fold
- Beclin-1 protein expression increase (HepG2 cells [5]; [15]): 4.8 fold
- p62 protein expression decrease (HepG2 cells [5]; [15]): 2.3 fold
- cleaved PARP protein increase vs control (HepG2 cells [5]; [16]): 4.3 times
- cleaved caspase-3 protein increase vs control (HepG2 cells [5]; [16]): 13.6 times

Structure (SMILES): COC(=O)C[C@H](NC(=O)[C@H](C)NC(=O)[C@@H](NC(=O)OCc1ccccc1)C(C)C)C(=O)CF [Z-VAD-FMK, reference compound] (Cbz-Val-Ala-Asp(OMe)-CH2F)
- cell viability (HepG2 cells [3]; HepG2, Z-VAD-FMK 20 μM pretreatment 1 h, no Sa/DDP, untreated 100.00 ± 19.04%): 100.66 ± 12.14%
- LC3II protein expression increase compared to group without Z-VAD-FMK (HepG2 cells [5]; [17]): 45.30 ± 2.05%
- caspase protein lysis decrease compared to group without Z-VAD-FMK (HepG2 cells [5]; [17]): 25.22 ± 1.22%
